Tests used:
Format in all cases: in vivo
[1] = tested on: blackgrass (Alopecurus myosuroides); experiment: Test B postemergence
Method in brief: (§1)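 Plants treated pre- or postemergence were compared visually with controls after 13 to 15 days. Ratings ran from 0, no effect, to 100, complete control.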

wild oat (Avena fatua) = experiment: Test B postemergence
Method in brief: as §1

[2] = tested on: barnyardgrass (Echinochloa crus-galli); experiment: Test B flooded paddy test; conditions: Flood, 1000 g ai/ha; scale 0 (no effect) to 100 (complete control)
Method in brief: (§2)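 Plants were grown to the 2-leaf stage before treatment, then kept in a greenhouse for 13 to 15 days. Injury was rated visually against untreated controls on a 0 to 100 scale, where 0 is no effect and 100 is complete control.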

[3] = tested on: umbrella sedge (Cyperus difformis); experiment: Test B flooded paddy test; conditions: Flood, 1000 g ai/ha; scale 0 to 100
Method in brief: as §2

rice (Oryza sativa) = experiment: Test B flooded paddy test; conditions: Flood, 1000 g ai/ha; scale 0 to 100
Method in brief: as §2

[4] = tested on: duck salad (Heteranthera limosa); experiment: Test B flooded paddy test; conditions: Flood, 1000 g ai/ha; scale 0 to 100
Method in brief: as §2

[5] = tested on: barnyardgrass (Echinochloa crus-galli); experiment: Test B pre/postemergence
Method in brief: as §1

[6] = tested on: crabgrass (Digitaria sanguinalis); experiment: Test B pre/postemergence
Method in brief: as §1

[7] = tested on: velvetleaf (Abutilon theophrasti); experiment: Test B pre/postemergence
Method in brief: as §1

[8] = tested on: pigweed (Amaranthus retroflexus); experiment: Test B pre/postemergence
Method in brief: as §1

[9] = tested on: giant foxtail (Setaria faberii); experiment: Test B pre/postemergence
Method in brief: as §1

[10] = tested on: lambsquarters (Chenopodium album); experiment: Test B pre/postemergence
Method in brief: as §1

corn (Zea mays) = experiment: Test B pre/postemergence
Method in brief: as §1

[11] = tested on: Surinam grass (Brachiaria decumbens); experiment: Test B pre/postemergence
Method in brief: as §1

[12] = tested on: wheat (Triticum aestivum); experiment: Test B pre/postemergence
Method in brief: as §1

[13] = tested on: cocklebur (Xanthium strumarium); experiment: Test B pre/postemergence
Method in brief: as §1

[14] = tested on: morningglory (Ipomoea coccinea); experiment: Test B pre/postemergence
Method in brief: as §1

[15] = 125 g ai/ha, scale 0 to 100 (0 no effect, 100 complete control)
[16] = Postemergence, 125 g ai/ha, scale 0 to 100 (0 no effect, 100 complete control)
[17] = Postemergence, 500 g ai/ha, scale 0 to 100
[18] = Preemergence, 125 g ai/ha, scale 0 to 100 (0 no effect, 100 complete control)
[19] = Preemergence, 500 g ai/ha, scale 0 to 100 (0 no effect, 100 complete control)

CCOC(=O)C(Cl)(Cl)c1nc(C2CC2)nc(N)c1Br [Compound 34]
Blackgrass plant response rating [1, 15]: 60 | Plant response rating, Blackgrass ([1]; 500 g ai/ha, scale 0 to 100): 70 | Oat, Wild plant response rating (wild oat (Avena fatua); [15]): 30 | Plant response rating, Oat, Wild (wild oat (Avena fatua); 500 g ai/ha, scale 0 to 100): 40 | Plant response rating, Barnyardgrass [2]: 0 | Plant response rating, Sedge, Umbrella [3]: 0 | Plant response rating, Rice (rice (Oryza sativa)): 0 | Plant response rating, Ducksalad [4]: 0 | Barnyardgrass plant response rating [5, 16]: 0 | Plant response rating, Barnyardgrass [5, 17]: 60 | Plant response rating, Barnyardgrass [5, 18]: 0 | Barnyardgrass plant response rating [5, 19]: 0 | Crabgrass plant response rating [6, 16]: 0 | Plant response rating, Crabgrass [6, 17]: 30 | Plant response rating, Crabgrass [6, 18]: 0 | Crabgrass plant response rating [6, 19]: 70 | Velvetleaf plant response rating [7, 16]: 30 | Plant response rating, Velvetleaf [7, 17]: 60 | Plant response rating, Velvetleaf [7, 18]: 30 | Velvetleaf plant response rating [7, 19]: 60 | Pigweed plant response rating [8, 16]: 50 | Plant response rating, Pigweed [8, 17]: 80 | Plant response rating, Pigweed [8, 18]: 40 | Pigweed plant response rating [8, 19]: 80 | Foxtail, Giant plant response rating [9, 16]: 20 | Plant response rating, Foxtail, Giant [9, 17]: 50 | Plant response rating, Foxtail, Giant [9, 18]: 0 | Foxtail, Giant plant response rating [9, 19]: 20 | Lambsquarters plant response rating [10, 16]: 70 | Plant response rating, Lambsquarters [10, 17]: 90 | Plant response rating, Lambsquarters [10, 18]: 50 | Lambsquarters plant response rating [10, 19]: 80 | Corn plant response rating (corn (Zea mays); [16]): 0 | Plant response rating, Corn (corn (Zea mays); [17]): 0 | Plant response rating, Corn (corn (Zea mays); [18]): 0 | Corn plant response rating (corn (Zea mays); [19]): 0 | Surinam Grass plant response rating [11, 16]: 10 | Plant response rating, Surinam Grass [11, 17]: 50 | Plant response rating, Surinam Grass [11, 18]: 10 | Surinam Grass plant response rating [11, 19]: 50 | Wheat plant response rating [12, 16]: 30 | Plant response rating, Wheat [12, 17]: 40 | Plant response rating, Wheat [12, 18]: 0 | Plant response rating, Wheat [12, 19]: 10 | Cocklebur plant response rating [13, 16]: 80 | Plant response rating, Cocklebur [13, 17]: 80 | Plant response rating, Cocklebur [13, 18]: 30 | Cocklebur plant response rating [13, 19]: 60 | Morningglory plant response rating [14, 16]: 60 | Plant response rating, Morningglory [14, 17]: 70 | Plant response rating, Morningglory [14, 18]: 20 | Morningglory plant response rating [14, 19]: 70

Source: patent publication US8802597B2, “Herbicidal pyrimidines” (E I du Pont de Nemours and Company, priority 2003, dated 2014)
